Patent US20240173341A1, “COMPOSITION FOR AMELIORATING OR TREATING DEMENTIA CONTAINING 2'-FUCOSYLLACTOSE” (Advanced Protein Technologies Corp., priority 2022, published 2024)

How the values were obtained:
[1] = system: 5×FAD (Aβ plaques) Alzheimer's models; test: Water maze test, dementia group; assay type: in vivo, mouse
Method: The experimental animals used herein were 24-week-old 5×FAD (Aβ plaques) Alzheimer's models. The experimental animals were raised at a temperature of 22±3° C., at a relative humidity of 30±10%, and at an illuminance of 150 to 300 Lux for a lighting period of 12 hours (08:00˜20:00), and five or less animals were raised in each polycarbonate cage. The distilled water (DW)-administered group was used as a negative control (vehicle), and a donepezil-administered group was used as a positive control. The term “dementia group” refers to 5×FAD mice administered distilled water and the term “normal group” refers to wild-type mice administered distilled water. 2′-FL was orally administered at various concentrations to wild-type and 5×FAD mouse groups for 8 weeks and then a water maze test was performed. Specifically, a circular water tank with a diameter of 150 cm and a height of 60 cm was filled to a height of 30 cm with water, and an escape platform was installed in one area of the four quadrants of the tank. During the training period, the escape platform was placed 1 cm below the surface of the water in the tank so that it was invisible, training was repeated at the identical water entry point three times a day, and recording was performed using a video tracking system (SMART v3.0 panlab SL). When the experimental animal reached the escape platform within 60 seconds, it was allowed to stay on the escape platform for 15 seconds, and when it could not find the escape platform, it was guided to the escape platform by hand and trained to stay on the escape platform alone for 20 seconds. In the probe test on the 6th day, the escape platform was removed and the experimental animals were allowed to swim freely for 60 seconds. At this time, the time (sec) to first reach the location of the escape platform and the number of target crossings were recorded (FIG. 1). FIG. 1 is a schematic diagram illustrating the water maze test method.

[2] = system: wild-type mice; test: Water maze test, normal group; assay type: in vivo, mouse; conditions: oral 8 weeks, compared to distilled water (vehicle), FIGS. 2 and 3
Method: The distilled water (DW)-administered group was used as a negative control (vehicle), and a donepezil-administered group was used as a positive control. The term “dementia group” refers to 5×FAD mice administered distilled water and the term “normal group” refers to wild-type mice administered distilled water. 2′-FL was orally administered at various concentrations to wild-type and 5×FAD mouse groups for 8 weeks and then a water maze test was performed. Specifically, a circular water tank with a diameter of 150 cm and a height of 60 cm was filled to a height of 30 cm with water, and an escape platform was installed in one area of the four quadrants of the tank. During the training period, the escape platform was placed 1 cm below the surface of the water in the tank so that it was invisible, training was repeated at the identical water entry point three times a day, and recording was performed using a video tracking system (SMART v3.0 panlab SL). When the experimental animal reached the escape platform within 60 seconds, it was allowed to stay on the escape platform for 15 seconds, and when it could not find the escape platform, it was guided to the escape platform by hand and trained to stay on the escape platform alone for 20 seconds. […] At this time, the time (sec) to first reach the location of the escape platform and the number of target crossings were recorded (FIG. 1). […]

[3] = system: 5×FAD (Aβ plaques) Alzheimer's models; test: Y-maze test; assay type: in vivo, mouse; conditions: 5×FAD mice, oral 8 weeks, all concentrations, compared to the dementia group; n=8~12, FIG. 6
Method: (§1) The experimental animals used herein were 24-week-old 5×FAD (Aβ plaques) Alzheimer's models. The experimental animals were raised at a temperature of 22±3° C., at a relative humidity of 30±10%, and at an illuminance of 150 to 300 Lux for a lighting period of 12 hours (08:00˜20:00), and five or less animals were raised in each polycarbonate cage.
The distilled water (DW)-administered group was used as a negative control (vehicle), and a donepezil-administered group was used as a positive control. The term “dementia group” refers to 5×FAD mice administered distilled water and the term “normal group” refers to wild-type mice administered distilled water. […]
Specifically, the arms of the Y-maze were randomly designated as A, B, and C, the mouse was placed on one arm and allowed to move freely for 5 minutes, and then the arm where the mouse entered was recorded. This record was limited to cases where the tail thereof completely entered, and cases where it entered the same arm again were also recorded (FIG. 5). […]
The case where the mouse entered three different arms one after another was given one point (actual alteration). Alteration behavior is defined as a case where the mouse enters all of three arms in turn and the result was calculated in accordance with Equation 1 below (maximum change: total number of entries—2).

[4] = system: amyloid beta accumulated in mouse brain tissue; test: Amyloid beta accumulation analysis (thioflavin staining of cleared brain tissue); assay type: in vivo; conditions: for Ab number / Ab number/volume: oral, 5×FAD mice
Method: as §1
The term “dementia group” refers to 5×FAD mice administered distilled water, and the term “normal group” refers to wild-type mice administered distilled water.
For the amyloid beta accumulated in mouse brain tissue, brain tissue over 1 mm in size was made transparent using a tissue transparency technique, stained with thioflavin, imaged in three dimensions, and then quantified as plaques for each brain region using the Imaris program.
In addition, three 1 mm-thick brain tissues were collected from each group, the volumes thereof were measured, and the total number of accumulated amyloid beta was measured.

[5] = system: phosphorylated tau protein; test: Tau protein hyperphosphorylation analysis (IHC); assay type: in vivo, mouse
Method: The experimental animals used herein were 24-week-old 5×FAD (Aβ plaques) Alzheimer's models. The experimental animals were raised at a temperature of 22±3° C., at a relative humidity of 30±10%, and at an illuminance of 150 to 300 Lux for a lighting period of 12 hours (08:00˜20:00), and five or less animals were raised in each polycarbonate cage. The distilled water (DW)-administered group was used as a negative control (vehicle), and a donepezil-administered group was used as a positive control. The term “dementia group” refers to 5×FAD mice administered distilled water, and the term “normal group” refers to wild-type mice administered distilled water. Hyperphosphorylation (p-tau) of tau protein was analyzed through image observation based on immunohistochemistry (IHC) using an antibody that detects tau protein expressed in mouse brain tissue and phosphorylated tau protein.

[6] = system: TNF-α; test: Neuroinflammatory marker analysis (ELISA), TNF-α; assay type: in vivo, mouse; conditions: 2′-FL-administered dementia group compared to the dementia group; FIG. 12
Method: (§2) The experimental animals used herein were 24-week-old 5×FAD (Aβ plaques) Alzheimer's models. The experimental animals were raised at a temperature of 22±3° C., at a relative humidity of 30±10%, and at an illuminance of 150 to 300 Lux for a lighting period of 12 hours (08:00˜20:00), and five or less animals were raised in each polycarbonate cage. The distilled water (DW)-administered group was used as a negative control (vehicle), and a donepezil-administered group was used as a positive control. The term “dementia group” refers to 5×FAD mice administered distilled water, and the term “normal group” refers to wild-type mice administered distilled water. The concentrations of neuroinflammatory cytokines, TNF-α and IL-6 in mouse brain tissue homogenates were analyzed using enzyme-linked immunosorbent assay (ELISA).

[7] = system: IL-6; test: Neuroinflammatory marker analysis (ELISA), IL-6; assay type: in vivo, mouse; conditions: 2′-FL-administered dementia group compared to the dementia group; FIG. 13
Method: as §2

[8] = 2′-FL 300 group, 1st brain tissue
[9] = 2′-FL 300 group, 2nd brain tissue
[10] = 2′-FL 300 group, 3rd brain tissue
[11] = 2′-FL 600 group, 1st brain tissue
[12] = 2′-FL 600 group, 2nd brain tissue
[13] = 2′-FL 600 group, 3rd brain tissue
[14] = 2′-FL 1200 group, 1st brain tissue
[15] = 2′-FL 1200 group, 2nd brain tissue
[16] = 2′-FL 1200 group, 3rd brain tissue

Substance: 2′-fucosyllactose [2′-FL]
- arrival route to the escape platform ([1]; 5th day of water maze training, 2′-FL-administered dementia group compared to the dementia group, FIG. 4): simplified
- spatial memory through training ([1]; all concentrations, 2′-FL-administered dementia group compared to the dementia group): significantly improved spatial memory
- time to arrive at the escape platform during the water maze training period ([1]; dementia group (5×FAD mice), oral 8 weeks, compared to distilled water (vehicle), FIGS. 2 and 3): reduced the time to arrive at the escape platform
- time to arrive at the escape platform during the water maze training period [2]: reduced the time to arrive at the escape platform
- spontaneous alteration (SA) [3]: significantly increased SA
- Ab number [4, 8]: 23900
- Ab number/volume [4, 8]: 8628
- Ab number [4, 9]: 26900
- Ab number/volume [4, 9]: 9642
- Ab number [4, 10]: 42000
- Ab number/volume [4, 10]: 12174
- Ab number ([4]; 2′-FL 300 group, Avr. of three brain tissues): 30933
- Ab number/volume ([4]; 2′-FL 300 group, Avr. of three brain tissues, *p ≤ 0.05 vs. Vehicle): 10148*
- Ab number [4, 11]: 32000
- Ab number/volume [4, 11]: 11722
- Ab number [4, 12]: 38400
- Ab number/volume [4, 12]: 11852
- Ab number [4, 13]: 20800
- Ab number/volume [4, 13]: 5762
- Ab number ([4]; 2′-FL 600 group, Avr. of three brain tissues): 30400
- Ab number/volume ([4]; 2′-FL 600 group, Avr. of three brain tissues, *p ≤ 0.05 vs. Vehicle): 9778*
- Ab number [4, 14]: 34300
- Ab number/volume [4, 14]: 10719
- Ab number [4, 15]: 31900
- Ab number/volume [4, 15]: 7800
- Ab number [4, 16]: 37000
- Ab number/volume [4, 16]: 12092
- Ab number ([4]; 2′-FL 1200 group, Avr. of three brain tissues): 34400
- Ab number/volume ([4]; 2′-FL 1200 group, Avr. of three brain tissues, *p ≤ 0.05 vs. Vehicle): 10203*
- amyloid beta accumulation ([4]; brain cortex of dementia group, n=8-12, FIG. 7): decrease in amyloid beta accumulation
- amyloid beta accumulation ([4]; brain hippocampus of dementia group, n=8-12, FIG. 8): decrease in amyloid beta accumulation
- accumulation of amyloid beta throughout the brain ([4]; dementia group, three 1 mm-thick brain tissues per group, Table 1, FIG. 9): significantly inhibited
- inhibition of tau protein hyperphosphorylation ([5]; brain cortex of dementia group, n=8~12, FIG. 10): no significant effect
- inhibition of tau protein hyperphosphorylation ([5]; brain hippocampus of dementia group, n=8~12, FIG. 11): no significant effect
- concentration of TNF-α [6]: significantly decreased
- concentration of IL-6 [7]: significantly decreased
